Test results from PMC8344022, “Small-molecule inhibitor of AF9/ENL-DOT1L/AF4/AFF4 interactions suppresses malignant gene expression and tumor growth” (Theranostics, 2021).

How the values were obtained:
[1] = tested on: H3K79me2 at gene promoters in Molm-13 cells; assay: Chromatin immunoprecipitation (ChIP)-qPCR; format: cell-based
Description: (§1) Next, compound 1 was tested for its ability to change expression of characteristic MLL-r leukemia genes HoxA9, Meis1 and Myc. Myc is also overexpressed in a broad range of AML and other cancers. […] (Figure S5), presumably because SEC is not recruited there.
Chromatin immunoprecipitation. […] Cells were lysed with nuclear lysis buffer and sonicated to ~100-1000 bp fragments, which was incubated at 4 °C overnight with the H3K79me2 antibody (#5427, Cell signaling) and IgG (C15410206, Diagenode). Protein A/G Magnetic Beads (10 µL, Novus Biologicals) were added and incubated for 2 h. The beads were washed 3x with RIPA buffer and 2x with TE buffer. DNA on the beads was eluted for 2 hours at 68 °C in 100 μL of an elution buffer (20 mM Tris pH 7.5, 5 mM EDTA, 50 mM NaCl, 1% SDS, 50 μg/ml proteinase K) (2x), and purified using a ChIP DNA Clean & Concentrator kit (Novus Biologicals). qPCR was done using the method described above.

[2] = biological target: T1, AF9 AHD bound to DOT1L-coated beads (Homo sapiens, UniProt P42568); assay: Western blot based pull-down assay; format: binding; conditions: increasing concentrations
T1 construct: cDNA for human AF9 AHD domain (475-568) and ENL AHD domain (489-559) was synthesized; made in house; host or cells: E. coli BL21(DE3)
T1 sequence (P42568 475-568): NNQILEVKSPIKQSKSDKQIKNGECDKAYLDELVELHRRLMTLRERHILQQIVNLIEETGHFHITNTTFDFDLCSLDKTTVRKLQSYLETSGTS
Description: A non-optical pull-down assay was used to further validate compound 1. DOT1L-coated beads were incubated with AF9 AHD in the presence of increasing concentrations of 1.
Western blot based pull-down assay. Biotinylated DOT1L peptide (0.25 mg/mL) was incubated with streptavidin agarose beads in PBS containing 0.1% Triton X-100 (400 µL) for 3h to yield, after washing, DOT1L-coated beads. MBP-AF9 AHD (0.2 µM, 40 µL) was pre-incubated with a compound for 30 min before adding to the beads. After 6 hours incubation at 4 °C, the beads were collected, thoroughly washed, and subjected to SDS-PAGE and analyzed by Western blot using an MBP Mouse mAb (#2396, Cell signaling).

MLL-r leukemia cells = assay: Cytospin/Wright-Giemsa staining; format: cell-based; conditions: 5 μM for 5 days
Description: Cytospin/Wrigth-Giemsa staining. The MV4;11 and Molm-13 cells were plated in 6-well plates (2.5 mL/well) at an initial concentration of 10^5 cells/mL and treated with a compound or DMSO at 37 °C in a 5% CO2 incubator for 5 days. Cytospins were performed to smear cells (100 µL, 10^6 cells/mL) on slide. After air dry, the slides were Wright's-Giemsa stained and air-dried for over 30 mins before examination.

[3] = tested on: nuclear protein levels in Molm-13 cells; assay: Western blot of nuclear proteins; format: cell-based; conditions: 3 days
Description: Next, we investigated how compound 1 affects these transcription cofactors in the nucleus, where they regulate gene expression. […] DOT1L inhibitor EPZ4777 [25] reduced the methylation levels of H3K79, but not other proteins (Figure 3B). […] In this regard, despite lack of activity against DOT1L, compound 1 can mimic EPZ4777 to reduce H3K79 methylation.
Western blot. 3x10^6 cells/well were treated with increasing concentrations of a compound for 3 days and nuclear proteins extracted with the EpiQuik Nuclear Extraction Kit (Epigentek) according to the manufacturer's protocol. Equal amounts of proteins were separated on SDS-PAGE and transferred to PVDF membranes. The blots were probed with primary antibodies, followed by anti-rabbit or anti-mouse IgG (Thermo Scientific) secondary antibodies. The primary antibodies used in this research were MBP Mouse mAb (#2396, Cell signaling), DOT1L Rabbit mAb (#77087, Cell signaling), MLL-N Rabbit mAb (#14689, Cell signaling), ENL Rabbit mAb (#14893, Cell signaling), Di-Methyl-Histone H3K79 Rabbit mAb (#5427, Cell signaling), Mono-Methyl-Histone H3K79 Rabbit mAb (#9398, Cell signaling), Histone H3 Rabbit mAb (#4499, Cell signaling), AF4 Rabbit pAb (#NBP1-28705, Novusbio) and AFF4 Rabbit pAb (#ab103586, Abcam).

[4] = Tolerability in xenograft study (body weight, overt toxicity); format: in vivo
Description: In vivo antitumor activity of compound 1 was evaluated in a commonly used mouse model of MLL-r leukemia, [26]. 10^7 MV4;11 cells in 0.1 mL of saline and Matrigel (1:1) were injected subcutaneously into NOD-SCID mice, which can develop palpable tumors in ~2 weeks.
In vivo antitumor studies. All of the mouse studies were conducted in strict compliance with an IRB-approved protocol. NOD-SCID mice (4 to 6 weeks old, from Jackson lab) were obtained and maintained under specific pathogen-free conditions. 10^7 MV4;11 cells in medical grade saline and Matrigel (1:1, 0.1 mL) were inoculated subcutaneously and palpable tumors (2-3 mm in diameter) were developed in ~ 2 weeks. Mice were treated with compound 1 (15 mg/kg/day for 10 days) in saline (0.1 mL) administered intraperitoneally. Tumors were measured every 2 days and estimated by using the formula a×b^2/2.

[5] = tested on: cytoplasmic protein levels in MV4;11 cells; assay: Western blot of cytoplasmic proteins; format: cell-based; conditions: 3 days, except for ENL at 15 µM
Description: (§2) Figure S4. The cytoplasmic protein levels after treatment with Cpd-1 for 3 days. (A) In contrast to the protein
(§3) me2, ENL and AFF4 in MV4;11 cells, except for ENL at 15 µM.
(§4) (1 picture or pasted object on this page, not shown here)

[6] = tested on: cytoplasmic protein levels in Molm-13 cells; assay: Western blot of cytoplasmic proteins; format: cell-based; conditions: 3 days
Description: as §2, §3, §4

[7] = tested on: HoxA9, Meis1 and Myc expression in Molm-13 cells; assay: qPCR of MLL target genes; format: cell-based; conditions: 4 days
Description: as §1
(§5) RNA extraction and Quantitative real-time PCR (qPCR). 10^5 cells/ml were incubated with a compound for 4 days and the RNA was extracted using RNeasy mini kit (#74104, Qiagen). 100-1000 ng of total RNA was reverse transcribed using iScript™ Reverse Transcription Supermix (Bio-Rad) using the manufacturer's protocol. Quantitative real-time PCR was carried out using Fast SYBR Green Master Mix (Applied Biosystems) according to the manufacturer's instructions. Measurements were performed in triplicate, using GAPDH as the reference gene. Real-time PCR was performed using Biosystems Step One Plus detection system. The following sequences of primers are used: […]

[8] = tested on: HoxA9, Meis1 and Myc expression in MV4;11 cells; assay: qPCR of MLL target genes; format: cell-based; conditions: 4 days
Description: as §1, §5

SMILES: CC(C)(C)c1ccc(-n2cc(C(=O)NC3CCNCC3)nc2-c2ccccc2)cc1 [Compound 1]
- H3K79-Me2 in a non-transcribed DNA region [1]: did not significantly reduce H3K79-Me2
- H3K79me2 in the gene promoters of HoxA9 and Myc ([1]; 5 μM for 4 days): decreased levels of H3K79me2
- Beads-bound AF9 AHD in pull-down (Western blot) [2]: reduced beads-bound AF9 AHD with a similar IC50
- Cell phenotype by Giemsa staining (MLL-r leukemia cells): more differentiated phenotype with reduced nucleus
- Nuclear levels of DOT1L, H3K79me1 and me2, ENL and AFF4 [3]: reduced the nuclear levels of DOT1L, H3K79me1 and me2, ENL and AFF4
- Nuclear levels of MLL-AF9 [3]: unaffected
- Body weight ([4]; 15 mg/kg for Day 1-10): did not cause significant weight losses
- Overt toxicity ([4]; mouse model of MLL-r leukemia, 15 mg/kg): without overt toxicity
- Cytoplasmic protein levels of H3K79me1 and me2, ENL and AFF4 [5]: did not significantly reduce
- Cytoplasmic levels of H3K79me1 and me2, ENL and AFF4 [6]: did not significantly reduce
- Expression of MLL target genes HoxA9, Meis1 and Myc [7]: dose-dependently suppressed expression
- Expression of MLL target genes HoxA9, Meis1 and Myc [8]: dose-dependently suppressed expression
